What was measured:
Assay type in all cases: functional, cell-based
[1] = test system: CCRF-CEM; assay: Cytotoxicity against human CEM cells after 72 hrs by MTT assay
[2] = test system: HT-29; assay: Cytotoxicity against human HT-29 cells after 72 hrs by MTT assay; conditions: HT-29, 72 h
[3] = test system: K562; assay: Cytotoxicity against human K562 cells after 72 hrs by MTT assay; conditions: K562, 72 h
[4] = test system: K562; assay: Cytotoxicity against paclitaxel-resistant human K562 cells after 72 hrs by MTT assay; conditions: K562, 72 h
[5] = test system: PC-3; assay: Cytotoxicity against human PC3 cells after 72 hrs by MTT assay; conditions: PC-3, 72 h
[6] = test system: A549; assay: Cytotoxicity against human A549 cells after 72 hrs by MTT assay; conditions: A549, 72 h
[7] = test system: DU-145; assay: Cytotoxicity against human DU145 cells after 72 hrs by MTT assay; conditions: DU-145, 72 h
[8] = test system: MCF7; assay: Cytotoxicity against human MCF7 cells after 72 hrs by MTT assay; conditions: MCF7, 72 h
[9] = test system: SK-MEL-2; assay: Cytotoxicity against human SK-MEL-2 cells after 72 hrs by MTT assay; conditions: SK-MEL-2, 72 h

SMILES: C=C(C)[C@@H]1CC[C@]2(C(=O)O)CC[C@]3(C)[C@H](CC[C@@H]4[C@@]5(C)CC[C@H](OC(C)=O)C(C)(C)[C@@H]5CC[C@]43C)[C@@H]12
- IC50 [1]: 200 µM
- IC50 [2]: 24 µM
- IC50 [3]: 18 µM
- IC50 [4]: 19 µM
- IC50 [5]: 17 µM

SMILES: C=C(C)[C@@H]1CC[C@]2(C(=O)OC(C)=O)CC[C@]3(C)[C@H](CC[C@@H]4[C@@]5(C)CC[C@H](OC(C)=O)C(C)(C)[C@@H]5CC[C@]43C)[C@@H]12
- IC50 [1]: 22 µM
- IC50 [2]: 110 µM
- IC50 [3]: 88 µM
- IC50 [4]: 108 µM
- IC50 [5]: 93 µM

SMILES: C=C(C)[C@@H]1CC[C@]2(C(=O)OC(C)=O)CC[C@]3(C)[C@H](CC[C@@H]4[C@@]5(C)CC(=O)OC(=O)C(C)(C)[C@@H]5CC[C@]43C)[C@@H]12
- IC50 [1]: 6 µM

SMILES: C=C(C)[C@@H]1CC[C@]2(COC(C)=O)CC[C@]3(C)[C@H](CC[C@@H]4[C@@](C)(CCOC(C)=O)[C@H](C(C)(C)COC(C)=O)CC[C@]43C)[C@@H]12
- IC50 [1]: 250 µM

SMILES: C=C(C)[C@@H]1CC[C@]2(C(=O)OC)CC[C@]3(C)[C@H](CC[C@@H]4[C@@]5(C)C=C(OC(C)=O)C(=O)C(C)(C)[C@@H]5CC[C@]43C)[C@@H]12
- IC50 [1]: 91 µM
- IC50 [2]: 46 µM
- IC50 [3]: 60 µM
- IC50 [4]: 25 µM
- IC50 [5]: 98 µM

SMILES: C=C(C)[C@@H]1CC[C@]2(C(=O)O)CC[C@]3(C)[C@H](CC[C@@H]4[C@@](C)(CC(=O)O)[C@H](C(C)(C)C(=O)O)CC[C@]43C)[C@@H]12
- IC50 [1]: 250 µM
- IC50 [2]: 219 µM
- IC50 [3]: 145 µM
- IC50 [4]: 250 µM
- IC50 [5]: 169 µM

SMILES: C=C(C)[C@@H]1CC[C@]2(C(=O)OC)CC[C@]3(C)[C@H](CC[C@@H]4[C@@]5(C)C=C(OC)C(=O)C(C)(C)[C@@H]5CC[C@]43C)[C@@H]12
- IC50 [1]: 5 µM
- IC50 [2]: 19 µM
- IC50 [3]: 11 µM
- IC50 [4]: 10 µM
- IC50 [5]: 20 µM

SMILES: C=C(C)[C@@H]1CC[C@]2(C(=O)OC)CC[C@]3(C)[C@H](CC[C@@H]4[C@@]5(C)[C@@H](O)OC(=O)C(C)(C)[C@@H]5CC[C@]43C)[C@@H]12
- IC50 [1]: 250 µM
- IC50 [2]: 65 µM
- IC50 [3]: 119 µM
- IC50 [4]: 85 µM
- IC50 [5]: 116 µM

SMILES: C=C(C)[C@@H]1CC[C@]2(C(=O)OC)CC[C@]3(C)[C@H](CC[C@@H]4[C@@](C)(CC(=O)O)[C@H](C(C)(C)C(=O)O)CC[C@]43C)[C@@H]12
- IC50 [1]: 113 µM
- IC50 [2]: 88 µM
- IC50 [3]: 77 µM
- IC50 [4]: 75 µM
- IC50 [5]: 63 µM

SMILES: C=C(C)[C@@H]1CC[C@]2(CO)CC[C@]3(C)[C@H](CC[C@@H]4[C@@](C)(CCO)[C@H](C(C)(C)CO)CC[C@]43C)[C@@H]12
- IC50 [1]: 20 µM
- IC50 [2]: 11 µM
- IC50 [3]: 9 µM
- IC50 [4]: 11 µM
- IC50 [5]: 49 µM

SMILES: C=C(C)[C@@H]1CC[C@]2(C(=O)O)CC[C@]3(C)[C@H](CC[C@@H]4[C@@]5(C)CC(=O)OC(=O)C(C)(C)[C@@H]5CC[C@]43C)[C@@H]12
- IC50 [1]: 101 µM

SMILES: C=C(C)[C@@H]1CC[C@]2(C(=O)O)CC[C@]3(C)[C@H](CC[C@@H]4[C@@]5(C)C=C(OC(C)=O)C(=O)C(C)(C)[C@@H]5CC[C@]43C)[C@@H]12
- IC50 [1]: 20 µM
- IC50 [2]: 7 µM
- IC50 [3]: 5 µM
- IC50 [4]: 16 µM
- IC50 [5]: 11 µM
- IC50 [6]: 11 µM
- IC50 [7]: 18 µM
- IC50 [8]: 17 µM
- IC50 [9]: 24 µM

SMILES: C=C(C)[C@@H]1CC[C@]2(C(=O)OC(=O)[C@]34CC[C@@H](C(=C)C)[C@@H]3[C@H]3CC[C@@H]5[C@@]6(C)CC[C@H](OC(C)=O)C(C)(C)[C@@H]6CC[C@@]5(C)[C@]3(C)CC4)CC[C@]3(C)[C@H](CC[C@@H]4[C@@]5(C)CC[C@H](OC(C)=O)C(C)(C)[C@@H]5CC[C@]43C)[C@@H]12
- IC50 [1]: 240 µM
- IC50 [2]: 173 µM
- IC50 [3]: 104 µM
- IC50 [4]: 242 µM
- IC50 [5]: 187 µM

SMILES: C=C(C)[C@@H]1CC[C@]2(C(=O)OC)CC[C@]3(C)[C@H](CC[C@@H]4[C@@](C)(CC(=O)OC)[C@H](C(C)(C)C(=O)OC)CC[C@]43C)[C@@H]12
- IC50 [1]: 250 µM
- IC50 [2]: 99 µM
- IC50 [3]: 104 µM
- IC50 [4]: 76 µM
- IC50 [5]: 245 µM

SMILES: C=C(C)[C@@H]1CC[C@]2(C(=O)OC)CC[C@]3(C)[C@H](CC[C@@H]4[C@@]5(C)CC[C@H](OC(C)=O)C(C)(C)[C@@H]5CC[C@]43C)[C@@H]12
- IC50 [1]: 16 µM
- IC50 [2]: 250 µM
- IC50 [3]: 250 µM
- IC50 [4]: 250 µM
- IC50 [5]: 250 µM

SMILES: C=C(C)[C@@H]1CC[C@]2(C(=O)O)CC[C@]3(C)[C@H](CC[C@@H]4[C@@]5(C)C=C(O)C(=O)C(C)(C)[C@@H]5CC[C@]43C)[C@@H]12
- IC50 [1]: 4 µM
- IC50 [2]: 6 µM
- IC50 [3]: 6 µM
- IC50 [4]: 11 µM
- IC50 [5]: 10 µM
- IC50 [6]: 10 µM
- IC50 [7]: 23 µM
- IC50 [8]: 14 µM
- IC50 [9]: 23 µM

SMILES: C=C(C)[C@@H]1CC[C@]2(C(=O)OC)CC[C@]3(C)[C@H](CC[C@@H]4[C@@]5(C)CC(=O)OC(=O)C(C)(C)[C@@H]5CC[C@]43C)[C@@H]12
- IC50 [1]: 7 µM
- IC50 [2]: 12 µM
- IC50 [3]: 29 µM
- IC50 [4]: 12 µM
- IC50 [5]: 89 µM

SMILES: C=C(C)[C@@H]1CC[C@]2(C(=O)O)CC[C@]3(C)[C@H](CC[C@@H]4[C@@]5(C)[C@@H](O)OC(=O)C(C)(C)[C@@H]5CC[C@]43C)[C@@H]12
- IC50 [1]: 96 µM
- IC50 [2]: 58 µM
- IC50 [3]: 81 µM
- IC50 [4]: 81 µM
- IC50 [5]: 79 µM

SMILES: C=C(C)[C@@H]1CC[C@]2(C(=O)OC)CC[C@]3(C)[C@H](CC[C@@H]4[C@@]5(C)C=C(O)C(=O)C(C)(C)[C@@H]5CC[C@]43C)[C@@H]12
- IC50 [1]: 23 µM
- IC50 [2]: 6 µM
- IC50 [3]: 8 µM
- IC50 [4]: 8 µM
- IC50 [5]: 10 µM
- IC50 [6]: 11 µM
- IC50 [7]: 9 µM
- IC50 [8]: 6 µM
- IC50 [9]: 11 µM

SMILES: C=C(C)[C@@H]1CC[C@]2(C(=O)O)CC[C@]3(C)[C@H](CC[C@@H]4[C@@]5(C)CC[C@H](O)C(C)(C)[C@@H]5CC[C@]43C)[C@@H]12 [BETULINIC ACID]
- IC50 [1]: 27 µM
- IC50 [2]: 89 µM
- IC50 [3]: 56 µM
- IC50 [4]: 112 µM
- IC50 [5]: 91 µM
- IC50 [6]: 146 µM
- IC50 [7]: 196 µM
- IC50 [8]: 143 µM
- IC50 [9]: 21 µM

SMILES: C=C(C)[C@@H]1CC[C@]2(C(=O)O)CC[C@]3(C)[C@H](CC[C@@H]4[C@@]5(C)CCC(=O)C(C)(C)[C@@H]5CC[C@]43C)[C@@H]12 [BETUNOLIC ACID]
- IC50 [1]: 17 µM
- IC50 [4]: 17 µM
- IC50 [7]: 36 µM
- IC50 [8]: 29 µM

SMILES: C=C(C)[C@@H]1CC[C@]2(C(=O)OC)CC[C@]3(C)[C@H](CC[C@@H]4[C@@]5(C)CC[C@H](O)C(C)(C)[C@@H]5CC[C@]43C)[C@@H]12 [METHYL BETULINATE]
- IC50 [1]: 150 µM
- IC50 [2]: 61 µM
- IC50 [3]: 71 µM
- IC50 [4]: 65 µM
- IC50 [5]: 109 µM

SMILES: C=C(C)[C@@H]1CC[C@]2(C(=O)OC)CC[C@]3(C)[C@H](CC[C@@H]4[C@@]5(C)CCC(=O)C(C)(C)[C@@H]5CC[C@]43C)[C@@H]12 [METHYL BETULONATE]
- IC50 [2]: 250 µM
- IC50 [3]: 239 µM
- IC50 [4]: 250 µM
- IC50 [5]: 250 µM
